Data as given in patent US20250059166A1, “PIPERIDINYLPYRIDINYLCARBONITRILE DERIVATIVES AS INHIBITORS OF GLUTAMINYL-PEPTIDE CYCLOTRANSFERASE AND GLUTAMINYL-PEPTIDE CYCLOTRANSFERASE LIKE PROTEIN” (Boehringer Ingelheim International GmbH, priority 2023, published 2025).

Columns and labels:
QPCT = target: T1, QPCT (Homo sapiens, UniProt Q16769); assay: Assay A: biochemical QPCT activity assay (MALDI-TOF MS, CD47 peptide substrate); conditions: compounds of the invention; 0.5 nM enzyme, 20 μM CD47 peptide substrate; read-out: Inhibition of QPCT: IC50
T1 construct: purchased Origine (so in the source)
T1 sequence (Q16769 29-361): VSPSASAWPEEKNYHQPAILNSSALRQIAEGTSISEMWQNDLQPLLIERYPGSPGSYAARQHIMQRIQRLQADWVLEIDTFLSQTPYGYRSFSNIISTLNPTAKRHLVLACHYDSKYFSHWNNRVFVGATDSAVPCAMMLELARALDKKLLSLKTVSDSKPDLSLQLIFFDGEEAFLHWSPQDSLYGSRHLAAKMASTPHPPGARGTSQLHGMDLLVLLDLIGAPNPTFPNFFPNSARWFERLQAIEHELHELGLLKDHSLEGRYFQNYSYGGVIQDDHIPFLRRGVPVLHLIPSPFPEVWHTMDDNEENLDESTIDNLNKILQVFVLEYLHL
Protocol: (§1) QPCT or QPCTL dependent conversion of N-terminal glutamine to pyroglutamate of CD47 was monitored via MALDI-TOF MS. Test compounds were dissolved in 100% DMSO and serially diluted into clear 1,536-well microtiter plates. Enzymatic reactions were set up in assay buffer containing 20 mM Tris pH 7.5, 0.1 mM TCEP, 0.01% BSA, and 0.001% Tween20. […] The plates were incubated for 10 min in a humidified incubator at 24° C. Subsequently, 2.5 μL of CD47 peptide substrate surrogate (^19[…]^33) was added to each well (final concentration: 10 μM for QPCTL/20 μM for QPCT). The plates were mixed for 30 sec at 1,000 rpm and subsequently incubated for 40 min in a humidified incubator at 24° C. […] The plates were sealed with an adhesive foil, mixed for 30 s at 1,000 rpm and stored at room temperature until preparation of the MALDI target plates. […] QPCT or QPCTL activity was monitored by calculating the ratio between product and internal standard signals followed by normalization to high (100% activity) and low (0% activity) controls. Determination of compound potencies was obtained by fitting the dose-response data to a four-parameter logistical equation.

[1] = test system: SIRPα signalling induced by Raji cells; assay: Assay B: SIRPα signalling assay using Raji cells; assay type: cell-based; conditions: Homo sapiens; compounds of the invention; Raji cells 48 h, Jurkat PathHunter SIRPαV1 reporter cells 5 h; read-out: Inhibition of SIRPα signalling induced by Raji cells: IC50
Protocol: (§2) Two cell types are independently used: the Raji cell line (lymphoblast-like human cell line derived from B lymphocytes from a Burkitt's lymphoma patient in 1963) and A549 cells (adenocarcinoma human alveolar basal epithelial cells).
(§3) Test compounds were dissolved in 100% DMSO and serially diluted into a white 384-well microtiter cell culture plate (PerkinElmer #60076780 in case of Raji assay; PDL-coated plates Greiner #781945 in case of A549 assay). 5000 Raji cells (ATCC #CC86) or 5000 A549 cells (ATCC #CCL-185) in Assay Complete Cell Plating reagent 30 (DiscoverX 93-0563R30B) were added per well. The assay plate was incubated for 48 h at 37° C., 95% humidity and 5% CO2. 15000 reporter cells (Jurkat PathHunter SIRPαV1, DiscoverX #93-1135C19) were added to each well, and the plate was incubated for 5 h at 37° C., 95% humidity and 5% CO2. Bioassay reagent 1 of the PathHunter Bioassay detection kit (DiscoverX 93-0001) was added to each well of the plate using a multichannel pipette followed by a 15 min incubation at room temperature. Afterwards bioassay reagent 2 was added followed by 60 min incubation at room temperature (incubation in the dark).
(§4) The analysis of the data was performed using the luminescence signal generated by beta-galactosidase in the PathHunter reporter cell line. The luminescence measurement was done using a Pherastar Multi-Mode Reader. Dose-response curves & IC50 data were calculated with 4-parameter sigmoidal dose response formula.

[2] = test system: SIRPα signalling induced by A549 cells; assay: Assay B: SIRPα signalling assay using A549 cells; assay type: cell-based; conditions: Homo sapiens; compounds of the invention; A549 cells 48 h, Jurkat PathHunter SIRPαV1 reporter cells 5 h; read-out: Inhibition of SIRPα signalling induced by A549 cells: IC50
Protocol: as §2, §3, §4

[3] = Assay C: permeability in CACO-2 cells; assay type: in vitro ADME; conditions: human, pH 7.2, compounds of the invention; for efflux ratio at 2 h: Caco-2, permeability B-A / permeability A-B; for Papp A→B at 2 h: Caco-2, apical to basolateral
Protocol: Caco-2 cells (1-2×10^5 cells/1 cm^2 area) are seeded on filter inserts (Costar transwell polycarbonate or PET filters, 0.4 μm pore size) and cultured (DMEM) for 10 to 25 days. Compounds are dissolved in appropriate solvent (like DMSO, 1-20 mM stock solutions). […] The transport solution (TL) is applied to the apical or basolateral donor side for measuring A-B or B-A permeability (3 filter replicates), respectively. Samples are collected at the start and end of experiment from the donor and at various time intervals for up to 2 hours also from the receiver side for concentration measurement by HPLC-MS/MS or scintillation counting. Sampled receiver volumes are replaced with fresh receiver solution.
Efflux ratio(ER)=permeabilityB−A/permeabilityA−B

QPCTL = target: T2, QPCTL (Homo sapiens, UniProt Q9NXS2); assay: Assay A: biochemical QPCTL activity assay (MALDI-TOF MS, CD47 peptide substrate); conditions: compounds of the invention; 0.5 nM enzyme, 10 μM CD47 peptide substrate; read-out: Inhibition of QPCTL: IC50
T2 construct: made in house
T2 sequence (Q9NXS2 whole entry): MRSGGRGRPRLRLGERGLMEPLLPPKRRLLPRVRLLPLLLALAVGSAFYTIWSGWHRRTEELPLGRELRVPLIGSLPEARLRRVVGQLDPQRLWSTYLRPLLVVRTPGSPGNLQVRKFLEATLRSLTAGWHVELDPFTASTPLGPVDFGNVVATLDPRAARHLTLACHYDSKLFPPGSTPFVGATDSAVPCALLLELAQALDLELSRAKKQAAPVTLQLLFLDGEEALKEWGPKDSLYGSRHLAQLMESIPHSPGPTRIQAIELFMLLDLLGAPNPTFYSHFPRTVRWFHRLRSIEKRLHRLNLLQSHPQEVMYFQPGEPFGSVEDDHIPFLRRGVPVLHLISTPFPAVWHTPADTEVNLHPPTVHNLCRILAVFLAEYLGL
Protocol: as §1

Row | IC50 (QPCT) [nM] | IC50 [1] [nM] | IC50 [2] [nM] | efflux ratio at 2 h [3] | Papp A→B at 2 h [3] [×10⁻⁶ cm/s] | IC50 (QPCTL) [nM] | Structure (SMILES)
1 | 4 | 87 | 41 | 1.4 | 62 | 2 | Cn1cnnc1C1(F)CCN(c2c(C#N)cc(C3CC3)nc2-c2ccc(F)nc2)CC1 [Example 31]
2 | 1 | 17 | 45 | 2.7 | 29 | 1 | Cn1cnnc1C1(F)CCN(c2c(C#N)cc(C3CC3)nc2-c2cnc3nn(C(C)(C)C)c(F)c3c2)CC1 [Example 29]
3 | 1 | 13 | 26 | 2.2 | 31 | 1 | Cn1cnnc1C1(F)CCN(c2c(C#N)cc(C(C)(F)F)nc2-c2cnc3nn(C(C)(C)C)c(F)c3c2)CC1 [Example 33]
4 | 6 | 247 | 106 | 2.9 | 16 | 3 | Cn1cnnc1C1(F)CCN(c2c(-c3ccc(F)nc3)ncc(Cl)c2C#N)CC1 [Example 39]
5 | < 1 | 9 | 13 | 13.3 | 5.8 | 1 | Cn1cnnc1C1(F)CCN(c2c(C#N)cc(Cl)nc2-c2cnc3nn(C(C)(C)C)cc3c2)CC1 [Example 36]
6 | 2 | 71 | 16 | 2.6 | 28 | 1 | Cc1cnc(-c2ccc(F)nc2)c(N2CCC(F)(c3nncn3C)CC2)c1C#N [Example 41]
7 | 10 | 154 | 43 | 3.6 | 17 | 3 | Cn1cnnc1C1(F)CCN(c2c(C#N)cc(C(F)F)nc2-c2ccc(F)nc2)CC1 [Example 35]

Continued, compound first:

Row | Structure (SMILES) | IC50 (QPCT) [nM] | IC50 [1] [nM] | IC50 [2] [nM] | efflux ratio at 2 h [3] | Papp A→B at 2 h [3] [×10⁻⁶ cm/s] | IC50 (QPCTL) [nM]
8 | Cn1cnnc1C1(F)CCN(c2c(C#N)cc(C(F)(F)F)nc2-c2cnc3nc(C(C)(C)C)nn3c2)CC1 [Example 11] | 3 | 47 | 29 | 14.9 | 4.3 | 3
9 | Cn1cnnc1C1(F)CCN(c2c(C#N)cc(C(F)(F)F)nc2-c2cnc3nn(C(F)(F)F)cc3c2)CC1 [Example 5] | 4 | 41 | 67 | 8.2 | 6.1 | 2
10 | Cn1cnnc1C1(F)CCN(c2c(C#N)ccnc2-c2cnc3nn(C(C)(C)C)c(C(F)(F)F)c3c2)CC1 [Example 15] | 3 | 69 | 66 | 1.6 | 35 | 4
11 | CC(C)n1nc2ncc(-c3nc(C(F)(F)F)cc(C#N)c3N3CCC(F)(c4nncn4C)CC3)cc2c1F [Example 7] | 2 | 26 | 39 | 11.9 | 5.8 | 2
12 | Cn1cnnc1C1(F)CCN(c2c(C#N)cc(C(F)(F)F)nc2-c2cnc3nn(C(C)(C)C)c(F)c3c2)CC1 [Example 2] | 1 | 17 | 53 | 4.9 | 16 | 1
13 | Cc1cc(F)ncc1-c1nccc(C#N)c1N1CCC(F)(c2nncn2C)CC1 [Example 21] | 6 | 187 | 115 | 2.4 | 18 | 1
14 | Cn1cnnc1C1(F)CCN(c2c(C#N)ccnc2-c2cnc3nn(C(F)(F)F)cc3c2)CC1 [Example 16] | 1 | 37 | 9 | 7.7 | 3.1 | 1
15 | Cn1cnnc1C1(F)CCN(c2c(C#N)ccnc2-c2cnc3nn(C(C)(C)C)c(Cl)c3c2)CC1 [Example 14] | < 1 | 21 | 12 | 6.9 | 12 | 1
16 | Cn1cnnc1C1(F)CCN(c2c(C#N)cc(C(F)(F)F)nc2-c2cnc3nn(C(C)(C)C)nc3c2)CC1 [Example 8] | 4 | 67 | 29 | 2.6 | 31 | 5
17 | Cn1cnnc1C1(F)CCN(c2c(C#N)cc(C3CC3)nc2-c2cnc3nn(C(C)(C)C)cc3c2)CC1 [Example 28] | < 1 | 7 | 12 | 3.8 | 19 | 1
18 | Cc1cc(C#N)c(N2CCC(F)(c3nncn3C)CC2)c(-c2cnc3nn(C(C)(C)C)c(Cl)c3c2)n1 [Example 26] | < 1 | 6 | 13 | 4.2 | 20 | < 1
